Test results taken from ChEMBL document CHEMBL5370642, “Synthesis and Bioevaluation of 3-(Arylmethylene)indole Derivatives: Discovery of a Novel ALK Modulator with Antiglioblastoma Activities” (J Med Chem, 2023).
Active and inactive are the calls of the source. No cut-off for these calls is given here.

Experiments:
[1] = Volume of distribution at steady state in C57BL6/J mouse at 5 mg/kg, iv measured upto 24 hrs by LC-MS/MS analysis; assay type: ADME, organism-based; settings: in vivo, read-out: Vdss
GL261 [2] = assay: Anti-proliferative activity against mouse GL261 cells assessed as cell viability incubated for 2 hrs by CCK8 assay; assay type: functional, cell-based; settings: GL261, 2 h
GL261 [3] = assay: In vivo induction of autophagy in mouse GL261 cells transfected with mRFP-GFPLC3 adenovirus allografted in C57BL/6J mouse model assessed as LC3 puncta in tumor tissue at 2.5 to 5 mg/kg, ip by immunofluorescence assay; assay type: functional, organism-based; settings: dose 2.5-5 mg/kg
GL261 [4] = assay: In vivo induction of apoptosis in mouse GL261 cells transfected with mRFP-GFPLC3 adenovirus allografted in C57BL/6J mouse model assessed as increase in cleaved caspase 3 level in tumor tissue at 2.5 to 5 mg/kg, ip by immunofluorescence assay; assay type: functional, organism-based; settings: dose 2.5-5 mg/kg
[5] = AUC (0 to 8hrs) in C57BL6/J mouse at 5 mg/kg, ip measured upto 24 hrs by LC-MS/MS analysis; assay type: ADME, organism-based; parameters: dose 5 mg/kg, time < 24 hrs, route ip; settings: in vivo
[6] = AUC (0 to infinity) in C57BL6/J mouse at 5 mg/kg, ip measured upto 24 hrs by LC-MS/MS analysis; assay type: ADME, organism-based; parameters: time < 24 hrs, dose 5 mg/kg, route ip; settings: in vivo
GL261 [7] = assay: Induction of autophagy in mouse GL261 cells assessed as cell viability pretreated with 5 uM CQ for 4 hrs followed by treated at 0.5 to 2 uM measured after 48 hrs by CCK8 assay; assay type: functional, cell-based
[8] = target: T1, ALK tyrosine kinase receptor (Homo sapiens, UniProt Q9UM73); settings: U-87 MG, dose 0.5-2 µM, time 24.0 hrs
Target sequence in this assay (Q9UM73 19-1620 limits assumed): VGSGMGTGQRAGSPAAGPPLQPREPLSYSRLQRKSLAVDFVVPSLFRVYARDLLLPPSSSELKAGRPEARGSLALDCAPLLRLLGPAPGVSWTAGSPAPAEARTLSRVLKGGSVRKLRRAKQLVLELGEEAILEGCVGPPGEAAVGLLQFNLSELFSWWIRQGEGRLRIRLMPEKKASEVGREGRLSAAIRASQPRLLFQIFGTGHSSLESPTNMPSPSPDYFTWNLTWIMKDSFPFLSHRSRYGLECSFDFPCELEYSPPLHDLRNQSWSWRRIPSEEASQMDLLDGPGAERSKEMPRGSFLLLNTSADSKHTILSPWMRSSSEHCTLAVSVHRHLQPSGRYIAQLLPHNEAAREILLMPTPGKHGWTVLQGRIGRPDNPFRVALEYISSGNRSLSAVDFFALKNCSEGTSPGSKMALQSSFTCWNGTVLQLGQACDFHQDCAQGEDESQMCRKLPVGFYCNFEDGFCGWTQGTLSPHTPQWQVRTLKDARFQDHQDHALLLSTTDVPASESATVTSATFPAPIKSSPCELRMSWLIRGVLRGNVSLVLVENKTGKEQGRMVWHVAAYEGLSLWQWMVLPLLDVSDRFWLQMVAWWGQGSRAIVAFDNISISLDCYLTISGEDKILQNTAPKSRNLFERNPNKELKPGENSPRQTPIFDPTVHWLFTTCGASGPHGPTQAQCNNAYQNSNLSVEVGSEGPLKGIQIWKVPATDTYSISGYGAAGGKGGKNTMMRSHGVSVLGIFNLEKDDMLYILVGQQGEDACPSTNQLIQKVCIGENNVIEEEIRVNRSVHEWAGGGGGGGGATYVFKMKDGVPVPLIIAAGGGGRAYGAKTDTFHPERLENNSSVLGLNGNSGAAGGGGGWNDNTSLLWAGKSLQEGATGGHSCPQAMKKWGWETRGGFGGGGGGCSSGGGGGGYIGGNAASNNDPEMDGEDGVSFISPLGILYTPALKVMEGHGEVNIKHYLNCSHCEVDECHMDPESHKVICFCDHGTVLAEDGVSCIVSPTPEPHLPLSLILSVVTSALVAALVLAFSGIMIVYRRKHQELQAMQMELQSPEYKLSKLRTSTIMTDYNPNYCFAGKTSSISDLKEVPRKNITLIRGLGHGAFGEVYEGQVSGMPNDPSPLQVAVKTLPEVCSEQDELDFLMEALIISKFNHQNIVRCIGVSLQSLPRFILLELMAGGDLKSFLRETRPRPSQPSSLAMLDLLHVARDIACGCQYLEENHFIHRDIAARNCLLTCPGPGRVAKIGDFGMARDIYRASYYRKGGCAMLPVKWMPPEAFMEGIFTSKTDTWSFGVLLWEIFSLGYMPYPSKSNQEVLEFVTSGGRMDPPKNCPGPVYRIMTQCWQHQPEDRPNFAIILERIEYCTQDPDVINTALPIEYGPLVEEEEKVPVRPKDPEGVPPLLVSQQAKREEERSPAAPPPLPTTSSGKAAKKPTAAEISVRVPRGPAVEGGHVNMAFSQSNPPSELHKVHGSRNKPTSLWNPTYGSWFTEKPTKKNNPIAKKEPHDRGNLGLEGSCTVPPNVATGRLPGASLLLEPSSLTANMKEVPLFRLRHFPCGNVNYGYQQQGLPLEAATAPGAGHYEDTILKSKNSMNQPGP

[9] = Half life in C57BL6/J mouse at 5 mg/kg, ip measured upto 24 hrs by LC-MS/MS analysis; assay type: ADME, organism-based; settings: in vivo
Mus musculus = assay: Anti glioblastoma activity against mouse GL261-mNeonGreenLuc cells stereotaxically injected in corpus striatum of orthotopic glioblastoma mouse model assessed as increase in survival rate at 5 mg/kg, ip once daily measured on day 21; assay type: functional, organism-based
GL261 [10] = assay: Anti-proliferative activity against mouse GL261 cells assessed as inhibition rate at 2 uM incubated for 72 hrs by CCK8 assay relative to control; assay type: functional
GL261 [11] = assay: Induction of apoptosis in mouse GL261 cells assessed as increase in cleaved caspase 3 level measured at 0.5 to 2 uM after 24 hrs by Western blot analysis; assay type: functional, cell-based; settings: dose 0.5-2 µM
GL261 [12] = assay: Induction of mitochondrial membrane potential loss in mouse GL261 cells at 0.5 to 2 uM incubated for 24 hrs by JC-1 staining based flow cytometry assay; assay type: functional, cell-based; settings: dose 0.5-2 µM
[13] = Tmax in C57BL6/J mouse at 5 mg/kg, iv measured upto 24 hrs by LC-MS/MS analysis; assay type: ADME, organism-based; settings: in vivo
[14] = Cmax in C57BL6/J mouse at 5 mg/kg, ip measured upto 24 hrs by LC-MS/MS analysis; assay type: ADME, organism-based; parameters: time < 24 hrs, dose 5 mg/kg, route ip; settings: in vivo
[15] = Half life in C57BL6/J mouse at 5 mg/kg, iv measured upto 24 hrs by LC-MS/MS analysis; assay type: ADME, organism-based; settings: in vivo
[16] = Tmax in C57BL6/J mouse at 5 mg/kg, ip measured upto 24 hrs by LC-MS/MS analysis; assay type: ADME, organism-based; settings: in vivo
GL261 [17] = assay: Anti-glioblastoma activity against mouse GL261-mNeonGreenLuc cells stereotaxically injected in corpus striatum of orthotopic glioblastoma mouse model assessed as decrease in Ki67 expression in GFP-labeled glioblastoma tissue at 5 mg/kg, ip once daily measured on day 21 by confocal microscopy; assay type: functional, organism-based
[18] = MRT (0 to 8hrs) in C57BL6/J mouse at 5 mg/kg, iv measured upto 24 hrs by LC-MS/MS analysis; assay type: ADME, organism-based; settings: in vivo
GL261 [19] = assay: Induction of cell cycle arrest in mouse GL261 cells assessed as accumulation at S phase at 1 uM incubated for 72 hrs by flow cytometry (reference value: 13.9%); assay type: functional, cell-based
GL261 [20] = assay: Induction of apoptosis in mouse GL261 cells assessed as necrotic cells measured at 0.5 to 2 uM after 72 hrs by flow cytometry; assay type: functional, cell-based; settings: dose 0.5-2 µM
[21] = target: T1, ALK tyrosine kinase receptor; settings: U-87 MG, dose 0.5-2 µM, time 24.0 hrs; remark: listed apart in the source
Target sequence in this assay (Q9UM73 19-1620 limits assumed): as above

GL261 [22] = assay: Anti glioblastoma activity against mouse GL261-mNeonGreenLuc cells stereotaxically injected in corpus striatum of orthotopic glioblastoma mouse model assessed as shrunken tumor tissue at 5 mg/kg, ip once daily measured on day 21 by H and E staining analysis; assay type: functional, organism-based
[23] = Cmax in C57BL6/J mouse at 5 mg/kg, iv measured upto 24 hrs by LC-MS/MS analysis; assay type: ADME, organism-based; parameters: dose 5 mg/kg, time < 24 hrs, route iv; settings: in vivo
[24] = Apparent volume of distribution in C57BL6/J mouse at 5 mg/kg, iv measured upto 24 hrs by LC-MS/MS analysis; assay type: ADME, organism-based; settings: in vivo, read-out: Vz
[25] = AUC (0 to 8hrs) in C57BL6/J mouse at 5 mg/kg, iv measured upto 24 hrs by LC-MS/MS analysis; assay type: ADME, organism-based; parameters: dose 5 mg/kg, time < 24 hrs, route iv; settings: in vivo
U-87 MG [26] = assay: Anti-proliferative activity against human U-87 MG cells assessed as decrease in cell viability at 0.5 to 10 uM by CCK8 assay; assay type: functional, cell-based; settings: U-87MG ATCC, dose 0.5-10 µM, time 24-72 hrs, TDE = time-dependent effect
U-87 MG [27] = assay: Anti-proliferative activity against human U-87 MG cells assessed as cell viability incubated for 2 hrs by CCK8 assay; assay type: functional, cell-based, U-87MG ATCC
[28] = target: T1, ALK tyrosine kinase receptor; assay: Inhibition of human ALK using GF-IRtide as substrate by Kinase-Glo Plus luminescence kinase assay
Target sequence in this assay (Q9UM73 whole entry): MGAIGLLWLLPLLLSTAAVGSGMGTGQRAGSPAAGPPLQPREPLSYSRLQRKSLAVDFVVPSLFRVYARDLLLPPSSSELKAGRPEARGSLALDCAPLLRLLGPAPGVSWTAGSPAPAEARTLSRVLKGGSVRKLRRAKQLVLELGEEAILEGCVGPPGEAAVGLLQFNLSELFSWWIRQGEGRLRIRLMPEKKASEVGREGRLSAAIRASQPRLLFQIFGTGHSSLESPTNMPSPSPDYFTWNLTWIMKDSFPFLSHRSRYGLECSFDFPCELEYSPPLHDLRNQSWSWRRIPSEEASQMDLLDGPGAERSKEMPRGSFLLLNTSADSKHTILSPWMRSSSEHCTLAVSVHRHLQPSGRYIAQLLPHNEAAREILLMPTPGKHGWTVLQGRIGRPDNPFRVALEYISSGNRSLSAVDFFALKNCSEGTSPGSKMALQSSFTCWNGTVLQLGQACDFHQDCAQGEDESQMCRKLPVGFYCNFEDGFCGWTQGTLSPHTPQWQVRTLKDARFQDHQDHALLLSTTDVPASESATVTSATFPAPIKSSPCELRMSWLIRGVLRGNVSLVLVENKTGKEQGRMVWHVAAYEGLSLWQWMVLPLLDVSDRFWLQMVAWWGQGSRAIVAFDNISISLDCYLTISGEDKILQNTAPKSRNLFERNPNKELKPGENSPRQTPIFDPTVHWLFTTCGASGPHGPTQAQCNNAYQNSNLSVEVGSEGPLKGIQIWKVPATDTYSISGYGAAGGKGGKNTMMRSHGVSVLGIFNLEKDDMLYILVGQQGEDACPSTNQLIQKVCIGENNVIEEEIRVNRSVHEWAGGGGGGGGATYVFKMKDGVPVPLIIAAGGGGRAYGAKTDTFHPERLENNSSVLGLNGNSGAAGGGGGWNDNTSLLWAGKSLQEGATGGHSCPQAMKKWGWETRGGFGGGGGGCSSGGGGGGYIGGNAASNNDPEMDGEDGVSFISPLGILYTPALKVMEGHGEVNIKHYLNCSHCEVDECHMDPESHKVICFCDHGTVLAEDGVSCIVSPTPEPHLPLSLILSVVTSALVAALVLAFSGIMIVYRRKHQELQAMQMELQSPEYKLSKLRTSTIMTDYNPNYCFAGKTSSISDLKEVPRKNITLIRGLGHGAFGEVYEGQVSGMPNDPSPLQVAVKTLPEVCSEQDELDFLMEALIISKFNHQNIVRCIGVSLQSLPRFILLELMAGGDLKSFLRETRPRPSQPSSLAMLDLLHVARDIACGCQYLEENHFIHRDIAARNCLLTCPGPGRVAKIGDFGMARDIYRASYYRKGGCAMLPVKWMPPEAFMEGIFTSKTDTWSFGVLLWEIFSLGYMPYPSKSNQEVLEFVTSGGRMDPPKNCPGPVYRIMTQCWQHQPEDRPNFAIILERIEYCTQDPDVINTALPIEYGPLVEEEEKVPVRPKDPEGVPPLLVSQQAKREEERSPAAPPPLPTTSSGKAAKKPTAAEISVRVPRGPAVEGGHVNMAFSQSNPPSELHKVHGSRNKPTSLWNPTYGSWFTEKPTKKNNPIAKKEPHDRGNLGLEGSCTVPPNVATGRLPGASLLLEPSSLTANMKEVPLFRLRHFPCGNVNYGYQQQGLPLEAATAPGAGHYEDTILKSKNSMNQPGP

GL261 [29] = assay: Induction of autophagy in mouse GL261 cells transfected with mRFP-GFPLC3 adenovirus assessed as yellow fluorescence at 2 uM incubated for 48 hrs by confocal microscopy; assay type: functional, cell-based
GL261 [30] = assay: Induction of apoptosis in mouse GL261 cells assessed as increase in annexin-V+/PI- cells at 0.5 to 2 uM by flow cytometry; assay type: functional, cell-based; settings: dose 0.5-2 µM, time 24-72 hrs, TDE = time-dependent effect
U-87 MG [31] = assay: Anti-proliferative activity against human U-87 MG cells assessed as decrease in cell viability incubated for 24 to 72 hrs by CCK8 assay; assay type: functional, cell-based; settings: U-87MG ATCC, dose 0.5-10 µM, time 24-72 hrs
[32] = MRT (0 to infinity) in C57BL6/J mouse at 5 mg/kg, ip measured upto 24 hrs by LC-MS/MS analysis; assay type: ADME, organism-based; settings: in vivo
GL261 [33] = assay: Induction of autophagy in mouse GL261 cells assessed as increase in LC3BII levels at 0.5 to 2 uM incubated for 24 hrs by Western blot analysis; assay type: functional, cell-based; settings: dose 0.5-2 µM
[34] = MRT (0 to infinity) in C57BL6/J mouse at 5 mg/kg, iv measured upto 24 hrs by LC-MS/MS analysis; assay type: ADME, organism-based; settings: in vivo
GL261 [35] = assay: Anti glioblastoma activity against mouse GL261-mNeonGreenLuc cells stereotaxically injected in corpus striatum of orthotopic glioblastoma mouse model assessed as inhibition of tumor growth at 5 mg/kg, ip once daily measured on day 21 by immunofluorescence imaging analysis; assay type: functional, organism-based

Q: What does the source list for `Cc1ccc(S(=O)(=O)n2cc(Cc3cc(C)c(O)c(C)c3)c3ccccc32)cc1`?
A: Vd [1]: 4.59 L/kg; IC50 (GL261 [2]): 1.35 µM; Activity (GL261 [3]): Active; Activity (GL261 [4]): Active; AUC(0-t) at 24 h [5]: 340 ng·h/mL; AUC(0-inf) [6]: 420 ng·h/mL; Activity (GL261 [7]): inactive; inhibition [8]: Active; half-life [9]: 213 min; Activity (Mus musculus): Active; inhibition at 2 µM (GL261 [10]): 80%; Activity (GL261 [11]): Active; Activity (GL261 [12]): Active; Tmax [13]: 4.8 min; Cmax [14]: 118 ng/mL; half-life [15]: 67.8 min; Tmax [16]: 34.8 min; Activity (GL261 [17]): Active; MRT last at 24 h [18]: 37.8 min; Activity (GL261 [19]): Active; Activity (GL261 [20]): Active; inhibition [21]: Active; Activity (GL261 [22]): Active; Cmax [23]: 1980 ng/mL; Vd [24]: 8.89 L/kg; AUC(0-t) at 24 h [25]: 885 ng·h/mL; Activity (U-87 MG [26]): Tde; IC50 (U-87 MG [27]): 7.25 µM; IC50 [28]: 7 µM; Activity (GL261 [29]): Active; Activity (GL261 [30]): Tde; Activity (U-87 MG [31]): Dose-Dependent Effect; MRT inf [32]: 276 min; Activity (GL261 [33]): Active; MRT inf [34]: 50.4 min; inhibition (GL261 [35]): Active
